In patent publication US11576933B2, “Compositions and methods for an improved antitumor immune response” (EFFECTOR THERAPEUTICS, INC., priority 2017, dated 2023):

What was measured:
myofibroblasts [1] = assay: Procollagen type 1 C-Peptide (PIPC) secretion from pre-formed myofibroblasts, (PIP) EIA kit; type: cell-based; conditions: myofibroblasts pre-formed with 10 ng/ml TGFβ 24 hours, washed; inhibitor 0-100 nM for 48 hours; FIG. 3B
Experimental: (§1) Briefly, fibroblasts (Lonza #CC-2512; cell passage numbers 2 through 5 were used for all experiments) were seeded (Day 0) and cultured in Dulbecco's modified Eagle medium (DMEM) supplemented with 10% fetal bovine serum (FBS), penicillin, streptomycin and glutamax (Invitrogen) at 37° C. in a humidified incubator with 5% CO2 overnight. On Day 1, cells were washed with phosphate buffered saline (PBS), and then incubated for 72 hours in fresh serum-free DMEM supplemented with penicillin, streptomycin, and glutamax. On Day 4, cells were washed, followed by addition of fresh serum-free DMEM containing 10 ng/ml TGFβ, and cultured for 24 hours. On Day 5, cells were washed, followed by addition of fresh serum-free DMEM containing eIF4A inhibitor Cmp1 (0, 1.2, 3.7, 11.1, 33.3 or 100 nM), and cultured. Controls included untreated cells. At 48 hours post-addition of eIF4A inhibitor, 300 ul of culture media was harvested, centrifuged to pellet cellular debris, and frozen at −80° C. TGFβ1 in the culture medium was quantified using the Human TGF-B1 ELISA kit (R&D System DY240-05) according to the manufacturer's instructions. Procollagen type 1 C-Peptide (PIPC) levels were analyzed using the (PIP) EIA kit (Clontech, Cat. No. MK101) according to the manufacturer's instructions.

[2] = test system: fibroblasts (Lonza #CC-2512); assay: α-SMA protein level by western blot in fibroblasts co-treated with TGFβ (fibroblast-to-myofibroblast transformation); type: cell-based; conditions: 24 hours co-incubation with 10 ng/ml TGFβ, inhibitor 0, 1.5, 4, 13 or 40 nM, FIG. 1
Experimental: (§2) Myofibroblasts are believed to be associated with tumor growth, vascularization, and metastasis (see, e.g., Webber et al., Cancer Res. 70:9621, 2010). The ability of Cmp1 or Cmp2 to inhibit the TGFβ-mediated fibroblast-to-myofibroblast transformation and components of the extracellular matrix was evaluated in fibroblasts.
(§3) Briefly, fibroblasts (Lonza #CC-2512; cell passage numbers 2 through 5 were used for all experiments) were seeded (Day 0) and cultured in Dulbecco's modified Eagle medium (DMEM) supplemented with 10% fetal bovine serum (FBS), penicillin, streptomycin and glutamax (Invitrogen) at 37° C. in a humidified incubator with 5% CO2 overnight. On Day 1, cells were washed with phosphate buffered saline (PBS), and then incubated for 48 hours in fresh serum-free DMEM supplemented with penicillin, streptomycin, and glutamax. […]
(§4) After a 24-hour incubation period, the effects of eIF4A inhibition on fibroblast transformation and production of extracellular matrix components were evaluated. Smooth muscle actin (α-SMA) protein levels were analyzed by western blot. Procollagen type 1 C-Peptide (PIPC) levels were analyzed by collecting culture media, centrifuging to pellet cellular debris, and quantifying using the (PIP) EIA kit (Clontech, Cat. No. MK101) according to the manufacturer's instructions.

[3] = test system: fibroblasts (Lonza #CC-2512); assay: Procollagen type 1 C-Peptide (PIPC) secretion from fibroblasts co-treated with TGFβ, (PIP) EIA kit; type: cell-based; conditions: 24 hours co-incubation with 10 ng/ml TGFβ; inhibitor 0, 1.5, 4, 13 or 40 nM; FIGS. 2A and 2B
Experimental: as §2, §3, §4

[4] = test system: KPC-3 (mouse pancreatic carcinoma) tumor; assay: Tumor infiltrating lymphocytes (CD3+/CD8+ IHC) in allograft KPC-3 tumor model; type: in vivo; conditions: parenterally, C57BL/6J mice, versus vehicle; for CD3+ T cells in the KPC-3 tumor samples: FIG. 4B
Experimental: To evaluate the effect of an eIF4A inhibitor on tumor infiltrating lymphocytes, an allograft tumor model was used. Briefly, KPC-3 (mouse pancreatic carcinoma) cells grown in DMEM supplemented with 10% FBS were harvested during exponential growth and counted for tumor inoculation in immune competent C57BL/6J mice. Each mouse was inoculated subcutaneously with 0.1×10^6 KPC-3 tumor cells in the right flank region in 0.1 mL volume comprising a 1:1 ratio (volume to volume) of cells in growth media and Matrigel® matrix (BD Biosciences, San Jose Calif.). Tumors were grown to 100-200 mm^3 prior to study initiation. Before beginning treatment, all animals were weighed and tumor volumes measured using a caliper. Since the tumor volume can affect the effectiveness of any given treatment, mice were randomly assigned into vehicle and test article treatment groups after tumors had reached a similar size. Each study group contained 8 mice, with each group receiving either vehicle (D5W) or Cmp1 administered parenterally on two dosing schedules (0.33 mg/kg Q2D and 1 mg/kg Q1W for 17 days). Following treatment, tumor biopsies were collected for four representative animals from each treatment group, formalin-fixed, and paraffin-embedded. Tumor samples were sectioned and stained with anti-CD3 and anti-CD8 antibodies or isotype control. A hematoxylin nuclear counterstain was also applied. Image analysis and quantification were conducted using ImageDx™. Increased CD3^+ and CD8^+ T cell staining within the tumor sample for eIF4A inhibitor treatment relative to vehicle indicates an increase in infiltrating lymphocytes into the tumor.

myofibroblasts [5] = assay: TGFβ secretion from pre-formed myofibroblasts, Human TGF-B1 ELISA kit; type: cell-based; conditions: myofibroblasts pre-formed with 10 ng/ml TGFβ 24 hours, washed; inhibitor 0-100 nM for 48 hours; FIG. 3A
Experimental: as §1

COc1cc2c(c(OC)n1)[C@]1(O)[C@H](O)[C@H](CN(C)C)[C@@H](c3ccccc3)[C@]1(c1ccc(C#N)cc1)O2 (racemic) [Cmp1]
procollagen type I levels (myofibroblasts [1]): dose-dependent decrease | α-SMA protein level (ratio of α-SMA to β-actin) [2]: dose-dependent reduction | procollagen type I secretion (PIPC) [3]: blocked the increase | CD3+ T cells in the KPC-3 tumor samples ([4]; 0.3 mg/kg Q2D for 17 days): significant increase | CD3+ T cells in the KPC-3 tumor samples ([4]; 1 mg/kg Q1W for 17 days): significant increase | CD8+ T cells in the KPC-3 tumor samples ([4]; 1 mg/kg Q1W for 17 days, FIG. 4C): significant increase | levels of secreted TGFβ (myofibroblasts [5]): reduced the levels of secreted TGFβ in a dose-dependent manner

COc1nc(Cl)cc2c1[C@]1(O)[C@H](O)[C@H](CN(C)C)[C@@H](c3ccccc3)[C@]1(c1ccc(C#N)cc1)O2 [Cmp2, 4-((5aR,6S,7S,8R,8aS)-3-chloro-7-((dimethylamino)methyl)-8,8a-dihydroxy-1-methoxy-6-phenyl-6,7,8,8a-tetrahydro-5aH-cyclopenta[4,5]furo[3,2-c]pyridin-5a-yl)benzonitrile]
α-SMA protein level (ratio of α-SMA to β-actin) [2]: dose-dependent reduction | procollagen type I secretion (PIPC) [3]: blocked the increase
